≈ marks a conversion by molar mass, not a printed value.
What was measured:
[1] = tested on: HeLaS3 cells; assay: HeLaS3 cell growth inhibition test; assay type: cell-based; details: Homo sapiens, HeLa S3; HeLaS3 cells, contact for 72 hours; read-out: cell growth inhibitory activity IC50, HeLaS3
Method: (§1) Compound (I) was examined for C-kinase inhibitory activity and cell growth inhibitory activity by the following method.
(§2) MCF 7 cells (4.5×10^4 cells/ml) prepared in RPMI 1640 medium containing 10% fetal calf serum, 10 μg/ml insulin and 10^-8 M estradiol are put into wells of a 96-well microtiter plate in the amount of 0.1 ml per each well. After incubation at 37° C. overnight in CO2 -incubator, 0.05 ml each of a test sample appropriately diluted with the culture medium is added to each well. In the case of contact for 72 hours, the cells are further cultured in CO2 -incubator, and then the culture supernatant is removed and the wells are washed once with PBS(-). Thereafter, 0.1 ml of fresh medium is added to each well, followed by culturing at 37° C. for 72 hours in CO2 -incubator. After the culture supernatant is removed, 0.1 ml of the culture medium containing 0.02% Neutral Red is added to each well, followed by culturing at 37° C. for one hour in CO2 -incubator, whereby the cells are stained. Then, the culture supernatant is removed and the cells are washed once with physiological saline. The pigment is extracted with 0.001N HCl/30% ethanol and absorption is measured at 550 nm with a microplate reader. By comparing the absorption of intact cells with those of the cells treated with a test compound in known concentrations, the concentration of the test compound at which growth of the cells is inhibited 50% is calculated as IC50.
(3) HeLaS3 cell growth inhibition test:
HeLaS3 cells (3×10^4 cells/ml) prepared in MEM medium containing 10% fetal calf serum and 2 mM glutamine are put into wells of a 96-well microtiter plate in the amount of 0.1 ml per each well.
Thereafter, the test is carried out in the same manner as in (1).

[2] = tested on: COLO320DM cells; assay: COLO320DM cell growth inhibition test; assay type: cell-based; details: Homo sapiens, COLO 320DM; COLO320DM cells, cells counted with a microcell counter; read-out: cell growth inhibitory activity IC50, COLO320DM
Method: as §2, with “After” for “MCF 7 cells (4.5×10^4 cells/ml) prepared in RPMI 1640 medium containing 10% fetal calf serum, 10 μg/ml insulin and 10^-8 M estradiol are put into wells of a 96-well microtiter plate in the amount of 0.1 ml per each well. After”, “reader.” for “reader. By comparing the absorption of intact cells with those of the cells treated with a test compound in known concentrations, the concentration of the test compound at which growth of the cells is inhibited 50% is calculated as IC50.”
(4) COLO320DM cell growth inhibition test:
Thereafter, the test is carried out in the same manner as in (1) except that the cells are counted with a microcell counter.

[3] = tested on: MCF 7 cells; assay: MCF 7 cell growth inhibition test; assay type: cell-based; details: Homo sapiens, MCF7; MCF-7 cells, contact for 72 hours; read-out: cell growth inhibitory activity IC50, MCF-7
Method: as §1
(1) MCF 7 cell growth inhibition test:
as §2

[4] = molecular target: C-kinase (protein kinase C); assay: C-Kinase inhibitory activity test; assay type: biochemical; details: enzyme activity inhibited 50%

| IC50 [1] | C-Kinase inhibitory activity IC50 [4] | Structure (SMILES) | IC50 [2] | IC50 [3] |
| --- | --- | --- | --- | --- |
| 0.27 µg/mL (≈ 0.548 µM) |  | CN1CC2(CC3OC2(C)n2c4ccccc4c4c5c(c6c7ccccc7n3c6c42)C(=O)NC5=O)OC1=O (centres unmarked) [Compound 75] | 0.18 µg/mL (≈ 0.365 µM) |  |
| 0.03 µg/mL (≈ 0.0662 µM) |  | Cc1ccc2c(c1)c1c3c(c4c5ccccc5n5c4c1n2[C@H]1C[C@](O)(CO)[C@]5(C)O1)CNC3=O (relative stereo) [Compound 26] | 0.03 µg/mL (≈ 0.0662 µM) | 0.26 µg/mL (≈ 0.573 µM) |
| 0.14 µg/mL (≈ 0.267 µM) |  | CC12OC(CC1(O)CN1CCSCC1)n1c3ccccc3c3c4c(c5c6ccccc6n2c5c31)CNC4=O (centres unmarked) [Compound 39] | 0.38 µg/mL (≈ 0.724 µM) | > 1 µg/mL |
| 0.18 µg/mL (≈ 0.354 µM) | 0.10 µg/mL | CC12OC(CC1(O)CN1CCOCC1)n1c3ccccc3c3c4c(c5c6ccccc6n2c5c31)CNC4=O (centres unmarked) [Compound 38] | 0.3 µg/mL (≈ 0.59 µM) |  |
| 0.88 µg/mL (≈ 1.59 µM) |  | COC(=O)C1(O)CC2OC1(C)n1c3ccccc3c3c4c(c5c6ccccc6n2c5c31)C(=O)N(CCN(C)C)C4=O (centres unmarked) [Compound 69] | 0.68 µg/mL (≈ 1.23 µM) | > 1 µg/mL |
| 0.5 µg/mL (≈ 0.953 µM) |  | CN(C)CCN1C(=O)c2c(c3c4ccccc4n4c3c3c2c2ccccc2n3C2CC(O)(CO)C4(C)O2)C1=O (centres unmarked) [Compound 70] | 0.41 µg/mL (≈ 0.782 µM) | 0.45 µg/mL (≈ 0.858 µM) |
| 0.03 µg/mL (≈ 0.0605 µM) |  | CC12OC(CC1(O)CNC(=O)CN)n1c3ccccc3c3c4c(c5c6ccccc6n2c5c31)CNC4=O (centres unmarked) [Compound 34] | 0.17 µg/mL (≈ 0.343 µM) | 0.24 µg/mL (≈ 0.484 µM) |
| 0.17 µg/mL (≈ 0.333 µM) |  | COC(=O)[C@@]1(O)C[C@H]2O[C@]1(C)n1c3ccccc3c3c4c(c5c6cc(N(C)C)ccc6n2c5c31)C(=O)NC4 (relative stereo) [Compound 12] | 0.11 µg/mL (≈ 0.215 µM) | 0.36 µg/mL (≈ 0.705 µM) |
| 0.22 µg/mL (≈ 0.486 µM) | 0.013 µg/mL | CC12OC(CC1(O)C=NO)n1c3ccccc3c3c4c(c5c6ccccc6n2c5c31)CNC4=O (centres unmarked) [Compound 50] | 0.17 µg/mL (≈ 0.376 µM) |  |
| > 1 µg/mL |  | CC12OC(CC1(O)CN)n1c3ccccc3c3c4c(c5c6ccccc6n2c5c31)C(=O)N(N)C4=O (centres unmarked) [Compound 71] | > 1 µg/mL | 1 µg/mL (≈ 2.14 µM) |
| 0.95 µg/mL (≈ 2.1 µM) | 0.016 µg/mL | CC12OC(CC1(O)CO)n1c3ccccc3c3c4c(c5c6ccccc6n2c5c31)C(=O)NC4=O (centres unmarked) [Compound 67] | 0.18 µg/mL (≈ 0.397 µM) |  |

Further lines, the compound ahead of its results:

| Structure (SMILES) | IC50 [1] | C-Kinase inhibitory activity IC50 [4] | IC50 [2] | IC50 [3] |
| --- | --- | --- | --- | --- |
| COC(=O)CNC[C@@]1(O)C[C@H]2O[C@]1(C)n1c3ccccc3c3c4c(c5c6ccccc6n2c5c31)C(=O)NC4 (relative stereo) [Compound 31] | 0.08 µg/mL (≈ 0.157 µM) |  | 0.31 µg/mL (≈ 0.607 µM) | 0.8 µg/mL (≈ 1.57 µM) |
| CC12OC(CC1(O)CNC(=O)C1CCCN1)n1c3ccccc3c3c4c(c5c6ccccc6n2c5c31)CNC4=O (centres unmarked) [Compound 35] | 0.05 µg/mL (≈ 0.0934 µM) |  | 0.26 µg/mL (≈ 0.485 µM) | 0.27 µg/mL (≈ 0.504 µM) |
| CC12OC(CC1(O)CN1CCCCC1)n1c3ccccc3c3c4c(c5c6ccccc6n2c5c31)CNC4=O (centres unmarked) [Compound 41] | 0.06 µg/mL (≈ 0.118 µM) |  | 0.07 µg/mL (≈ 0.138 µM) | > 1 µg/mL |
| C[C@]12O[C@H](C[C@]1(O)CO)n1c3ccc(Br)cc3c3c4c(c5c6ccccc6n2c5c31)CNC4=O (relative stereo) [Compound 24] | 0.06 µg/mL (≈ 0.116 µM) |  | 0.06 µg/mL (≈ 0.116 µM) | 0.19 µg/mL (≈ 0.367 µM) |
| C[C@]12O[C@H](C[C@]1(O)COC1CCCCO1)n1c3ccccc3c3c4c(c5c6ccccc6n2c5c31)CNC4=O (some centres unmarked) [Compound 28] | 0.2 µg/mL (≈ 0.382 µM) |  | 0.32 µg/mL (≈ 0.611 µM) | 1 µg/mL (≈ 1.91 µM) |
| CN(C)C=NC[C@@]1(O)C[C@H]2O[C@]1(C)n1c3ccccc3c3c4c(c5c6ccccc6n2c5c31)C(=O)NC4 (relative stereo) [Compound 33] | 0.08 µg/mL (≈ 0.162 µM) |  | 1 µg/mL (≈ 2.03 µM) | 0.26 µg/mL (≈ 0.527 µM) |
| CC12OC(CC1(O)C(=O)NO)n1c3ccccc3c3c4c(c5c6ccccc6n2c5c31)C(=O)NC4=O (centres unmarked) [Compound 76] | 0.4 µg/mL (≈ 0.829 µM) |  | 0.06 µg/mL (≈ 0.124 µM) | 0.62 µg/mL (≈ 1.29 µM) |
| COC(=O)[C@@]1(O)C[C@H]2O[C@]1(C)n1c3ccccc3c3c4c(c5c6cccc(N)c6n2c5c31)C(=O)NC4 (relative stereo) [Compound 11] | 0.1 µg/mL (≈ 0.207 µM) |  | 0.16 µg/mL (≈ 0.332 µM) | 0.47 µg/mL (≈ 0.974 µM) |
